Test results from US4109000A, “5-Benzylpicolinic acid derivatives” (Nippon Shinyaku Co., Ltd., priority 1975, dated 1978).
Converted amounts (≈) assume the structure as drawn. Read-outs that look alike come from different tables or passages of the source.

Key:
dopamine-β-hydroxylase = molecular target: T1, dopamine-β-hydroxylase (Bos taurus, UniProt P15101); assay: dopamine-β-hydroxylase inhibitory activity; format: biochemical
T1 sequence (P15101 1-610): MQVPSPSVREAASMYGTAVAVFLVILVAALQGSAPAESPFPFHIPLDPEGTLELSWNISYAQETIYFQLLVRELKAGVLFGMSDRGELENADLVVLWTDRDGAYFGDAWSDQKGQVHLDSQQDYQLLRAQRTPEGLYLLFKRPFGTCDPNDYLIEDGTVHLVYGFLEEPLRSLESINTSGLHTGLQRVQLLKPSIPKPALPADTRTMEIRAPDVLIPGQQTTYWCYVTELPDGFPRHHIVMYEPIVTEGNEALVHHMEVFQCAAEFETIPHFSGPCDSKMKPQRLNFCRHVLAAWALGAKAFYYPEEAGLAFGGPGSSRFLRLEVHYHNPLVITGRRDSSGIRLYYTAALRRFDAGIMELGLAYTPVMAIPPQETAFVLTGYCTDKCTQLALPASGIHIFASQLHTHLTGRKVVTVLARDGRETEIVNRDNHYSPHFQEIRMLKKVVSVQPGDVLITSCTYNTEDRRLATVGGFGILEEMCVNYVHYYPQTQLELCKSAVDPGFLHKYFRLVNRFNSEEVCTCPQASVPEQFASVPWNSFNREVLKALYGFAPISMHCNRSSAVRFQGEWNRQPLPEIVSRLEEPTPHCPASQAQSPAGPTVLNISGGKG

[1] = acute toxicity (LD50), intraperitoneal, ddY male mice; conditions: mouse, in vivo, ip, ddY male mice (6 weeks age)
Procedure: (§1) The pharmacological action of the product of the present invention can be conventionally observed as follows: 50 mg/kg of a sample was administered orally to spontaneously hypertensive rats (male 20-40 weeks age) and percent decrease in blood pressure after 1, 2, 3 and 5 hours was determined, using the known fusaric acid as a reference. Acute toxicity of the compounds was determined by introperitoneal administration of the samples to ddY male mice (6 weeks age), followed by calculation of the values after observation for one week. The results are as follows:

[2] = tested on: spontaneously hypertensive rats; assay: percent decrease in blood pressure in spontaneously hypertensive rats, oral; format: in vivo, spontaneously hypertensive rats (male); conditions: for inhibition in vivo at 50 mg/kg: Rattus norvegicus, po, read-out: % Decrease in blood pressure, 5hrs.; for % Decrease in blood pressure, 1hr.: after 1 hr; for % Decrease in blood pressure, 2hrs.: after 2 hrs; for % Decrease in blood pressure, 3hrs.: after 3 hrs
Procedure: as §1, with “week.” for “week. The results are as follows:”

[3] = observation for one week (second table), read-out: LD50 (i.p.)
[4] = intraperitoneal, observation for one week (first table), read-out: LD50
[5] = 50 mg/kg orally, spontaneously hypertensive rats (male 20-40 weeks), after 5 hrs
[6] = 50 mg/kg orally, spontaneously hypertensive rats (male 20-40 weeks)

Compound | IC50 (dopamine-β-hydroxylase) [nM] | LD50 at 168 h [1, 3] [mg/kg] | LD50 at 168 h [1, 4] [mg/kg] | inhibition in vivo at 50 mg/kg [2, 5] [%] | % Decrease in blood pressure, 1hr. [2, 6] [%] | % Decrease in blood pressure, 2hrs. [2, 6] [%] | % Decrease in blood pressure, 3hrs. [2, 6] [%] | other results
Nc1ccc(Cc2ccc(C(=O)O)nc2)cc1 [5-(4-Aminobenzyl)-picolinic Acid] | 333 |  |  |  |  |  |  | 
O=C(O)c1ccc(Cc2ccc(O)cc2)cn1 [5-(4-Hydroxybenzyl)-picolinic Acid, 5-(4-hydroxybenzyl)picolinic acid] |  | 193 |  |  |  |  |  | ID50 (dopamine-β-hydroxylase; dopamine-β-hydroxylase inhibition): 8.9 ng/mL (≈ 0.0388 µM)
O=C(NCc1ccccc1)c1ccc(Cc2ccccc2)cn1 [5-Benzylpicolinic acid N-benzylamide] |  |  | 707 | 27.1 |  |  |  | 
O=C(O)c1ccc(Cc2ccc([N+](=O)[O-])cc2)cn1 [5-(4-Nitrobenzyl)-picolinic acid, 5-(4-nitrobenzyl)picolinic acid] |  |  | 177 | 39.8 |  |  |  | 
CCOC(=O)c1ccc(Cc2ccc(O)cc2)cn1 [Ethyl 5-(4-hydroxybenzyl)-picolinate, ethyl 5-(4-hydroxybenzyl)picolinate] | 27.6 | 594 |  |  |  |  |  | 
CCCCc1ccc(C(=O)O)nc1 [Fusaric acid, reference compound] | 83.7 |  | 80 |  | 15.6 | 21.3 | 16.5 | inhibition in vivo at 50 mg/kg ([2]; 5 h): 21%
COC(=O)c1ccc(Cc2ccc(O)cc2)cn1 [Methyl 5-(4-hydroxybenzyl)-picolinate, methyl 5-(4-hydroxybenzyl)-picolinate] | 28.8 | 1000 |  |  |  |  |  | 
O=C(O)c1ccc(Cc2ccc(Cl)cc2)cn1 [5-(4-Chlorobenzyl)-picolinic acid, 5-(4-Chlorobenzyl)picolinic acid] |  |  | 120 | 50.3 | 26.4 | 42.1 | 48.6 | 
COC(=O)c1ccc(Cc2ccccc2)cn1 [Methyl 5-benzylpicolinate] |  |  | 88 | 48.8 |  |  |  | 
COc1ccccc1Cc1ccc(C(=O)O)nc1 [5-(2-Methoxybenzyl)-picolinie acid, 5-(2-Methoxybenzyl)picolinic acid] |  |  | 177 | 25.5 | 25.9 | 26.9 | 26.0 | 
O=C(O)c1ccccn1 [Picolinic Acid] | 8120 |  |  |  |  |  |  | 
O=C(O)c1ccc(Cc2ccccc2)cn1 [5-Benzylpicolinic acid, 5-benzylpicolinic acid] |  |  | 138 | 29.5 | 12.7 | 19.0 | 24.9 | 
CCOC(=O)c1ccc(Cc2ccccc2)cn1.Cl [Ethyl 5-benzylpicolinate (Hydrochloride), ethyl 5-benzylpicolinate hydrochloride] |  |  | 140 | 32.4 |  |  |  | 
COc1ccc(Cc2ccc(C(=O)O)nc2)cc1 [5-(4-Methoxybenzyl)-picolinic acid, 5-(4-methoxybenzyl)picolinic acid] |  |  | 132 | 21.9 | 24.8 | 28.1 | 23.4 | 
O=C(O)c1ccc(Cc2ccc(O)c(O)c2)cn1 [5-(3,4-Dihydroxybenzyl)-picolinic Acid, 5-(3,4-dihydroxybenzyl)picolinic acid] | 35.9 | 561 |  |  |  |  |  | 
O=C(O)c1ccc(Cc2ccccc2O)cn1 [5-(2-Hydroxybenzyl)-picolinic Acid] | 91.6 | 354 |  |  |  |  |  | 
